Laboratory results as given in the supplement of paper PMC10307832.

Columns and labels:
Assay in all cases: relative viability (nuclei count vs DMSO), 5 days (fraction); higher = more cells survive
[1] = tested on: HCC-366
In short: (§1)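 Lung cancer cell lines were seeded in 1536-well plates and dosed by pin tool the next day, with either a single drug or a fixed anchor-drug dose combined with five library-drug doses (not always all listed) spaced in √10 steps. Five days later, one step fixed the cells and stained their nuclei (final 0.05% Triton X-100, 1% formaldehyde, 1 ug/ml Hoechst), and nuclei were counted on 4× images. Relative viability is the nuclei count in treated wells divided by the count in vehicle wells, and each value is the median of duplicate plates.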

[2] = tested on: NCI-H1395
In short: as §1

[3] = tested on: HCC-78
In short: as §1

[4] = tested on: NCI-H1623
In short: as §1

[5] = tested on: A549
In short: as §1

[6] = tested on: EMC-BAC-2
In short: as §1

[7] = tested on: LCLC-97TM1
In short: as §1

[8] = tested on: Calu-6
In short: as §1

[9] = tested on: EBC-1
In short: as §1

[10] = tested on: IA-LM
In short: as §1

[11] = tested on: NCI-H1703
In short: as §1

[12] = tested on: NCI-H1299
In short: as §1

Cc1csc(=NC2CCCCC2)n1/N=C/c1ccc(O)c(O)c1O [MIM1] + N=C(N)NC(=N)NCCc1ccccc1 [Phenformin] (partner 250 µM)
relative viability ([1]; first compound 0.2 µM): 0.598
relative viability ([1]; first compound 2 µM): 0.574
relative viability ([1]; first compound 6.325 µM): 0.357
relative viability ([1]; first compound 20 µM): 0.0831
relative viability ([2]; first compound 0.2 µM): 0.45
relative viability ([2]; first compound 0.6325 µM): 0.444
relative viability ([2]; first compound 2 µM): 0.459
relative viability ([2]; first compound 6.325 µM): 0.399
relative viability ([2]; first compound 20 µM): 0.346
relative viability ([3]; first compound 0.2 µM): 0.81
relative viability ([3]; first compound 0.6325 µM): 0.53
relative viability ([3]; first compound 2 µM): 0.628
relative viability ([3]; first compound 6.325 µM): 0.597
relative viability ([3]; first compound 20 µM): 0.347
relative viability ([4]; first compound 0.2 µM): 0.561
relative viability ([4]; first compound 0.6325 µM): 0.428
relative viability ([4]; first compound 2 µM): 0.587
relative viability ([4]; first compound 6.325 µM): 0.562
relative viability ([4]; first compound 20 µM): 0.374
relative viability ([5]; first compound 0.2 µM): 0.164
relative viability ([5]; first compound 0.6325 µM): 0.108
relative viability ([5]; first compound 2 µM): 0.144
relative viability ([5]; first compound 6.325 µM): 0.108
relative viability ([5]; first compound 20 µM): 0.0481
relative viability ([6]; first compound 0.2 µM): 0.547
relative viability ([6]; first compound 0.6325 µM): 0.455
relative viability ([6]; first compound 2 µM): 0.515
relative viability ([6]; first compound 6.325 µM): 0.48
relative viability ([6]; first compound 20 µM): 0.208
relative viability ([7]; first compound 0.2 µM): 0.445
relative viability ([7]; first compound 0.6325 µM): 0.434
relative viability ([7]; first compound 2 µM): 0.413
relative viability ([7]; first compound 6.325 µM): 0.312
relative viability ([7]; first compound 20 µM): 0.142

Cc1cn(-c2cc(NC(=O)c3ccc(C)c(Nc4nccc(-c5cccnc5)n4)c3)cc(C(F)(F)F)c2)cn1 [Nilotinib] + COc1cc2c(Oc3ccc(NC(=O)C4(C(=O)Nc5ccc(F)cc5)CC4)cc3F)ccnc2cc1OCCCN1CCOCC1 [Foretinib] (partner 0.25 µM)
relative viability ([8]; first compound 0.001 µM): 0.726
relative viability ([8]; first compound 0.003162 µM): 0.897
relative viability ([8]; first compound 0.01 µM): 0.934
relative viability ([8]; first compound 0.03162 µM): 0.644
relative viability ([8]; first compound 0.1 µM): 0.801
relative viability ([1]; first compound 0.001 µM): 0.959
relative viability ([1]; first compound 0.003162 µM): 1.08
relative viability ([1]; first compound 0.01 µM): 1.17
relative viability ([1]; first compound 0.03162 µM): 0.916
relative viability ([1]; first compound 0.1 µM): 0.953
relative viability ([2]; first compound 0.001 µM): 1.07
relative viability ([2]; first compound 0.003162 µM): 0.937
relative viability ([2]; first compound 0.01 µM): 0.953
relative viability ([2]; first compound 0.03162 µM): 0.853
relative viability ([2]; first compound 0.1 µM): 1.02
relative viability ([9]; first compound 0.001 µM): 0.0869
relative viability ([9]; first compound 0.003162 µM): 0.101
relative viability ([9]; first compound 0.01 µM): 0.105
relative viability ([9]; first compound 0.1 µM): 0.112
relative viability ([3]; first compound 0.001 µM): 0.636
relative viability ([3]; first compound 0.003162 µM): 0.65
relative viability ([3]; first compound 0.01 µM): 0.719
relative viability ([3]; first compound 0.03162 µM): 0.577
relative viability ([3]; first compound 0.1 µM): 0.59
relative viability ([4]; first compound 0.001 µM): 0.789
relative viability ([4]; first compound 0.003162 µM): 0.815
relative viability ([4]; first compound 0.01 µM): 0.873
relative viability ([4]; first compound 0.03162 µM): 0.667
relative viability ([4]; first compound 0.1 µM): 0.791
relative viability ([10]; first compound 0.001 µM): 1.14
relative viability ([10]; first compound 0.003162 µM): 1.23
relative viability ([10]; first compound 0.01 µM): 1.33
relative viability ([10]; first compound 0.1 µM): 1.17
relative viability ([5]; first compound 0.001 µM): 1.03
relative viability ([5]; first compound 0.01 µM): 1.15
relative viability ([5]; first compound 0.1 µM): 0.95
relative viability ([11]; first compound 0.001 µM): 0.337
relative viability ([11]; first compound 0.1 µM): 0.409
relative viability ([6]; first compound 0.001 µM): 0.963
relative viability ([6]; first compound 0.003162 µM): 1.14
relative viability ([6]; first compound 0.01 µM): 1.13
relative viability ([6]; first compound 0.03162 µM): 0.922
relative viability ([6]; first compound 0.1 µM): 1.02
relative viability ([7]; first compound 0.001 µM): 0.902
relative viability ([7]; first compound 0.003162 µM): 1.05
relative viability ([7]; first compound 0.01 µM): 0.956
relative viability ([7]; first compound 0.03162 µM): 0.883
relative viability ([7]; first compound 0.1 µM): 0.885
relative viability ([12]; first compound 0.001 µM): 1.11
relative viability ([12]; first compound 0.01 µM): 1.17
relative viability ([12]; first compound 0.03162 µM): 1.19
relative viability ([12]; first compound 0.1 µM): 1.07
